Laboratory results taken from patent US12180172B1, “[3-(4-Methoxyphenyl)-1,2,4-oxadiazol-5-yl]methanol as an antitumor and antimicrobial compound” (KING FAISAL UNIVERSITY, priority 2023, dated 2024).

Tests used:
Format in all cases: cell-based
[1] = tested on: Chrysosporium keratinophilum; assay: Agar plate disc-diffusion, Chrysosporium keratinophilum; conditions: fungus; disc 10 μL of 10 mg/mL in DMSO, 72 h
Description: (§1) The antimicrobial properties of the synthesized compounds were studied by the method of agar plate disc-diffusion. Sterilized filter papers (6 mm in diameter) were wetted with 10 μL of a solution of each compound to be tested, containing 10 mg/mL in DMSO, and the discs were allowed to air dry. The discs were then placed onto the surface of agar plates (nutrient agar for bacteria and Sabouraud's dextrose agar for fungi) seeded with the test organism. Each plate contained 15 mL of the agar medium, previously seeded with 0.2 mL of the broth culture of each organism pregrown for 18 h. The plates were incubated at 37° C. for 48 h, and 72 h for fungi. The inhibition zones were measured in mm. Discs impregnated with DMSO were used as a control, and its inhibition zone was subtracted from the tested compound actual inhibition zone.

Pseudomonas aeruginosa = assay: Agar plate disc-diffusion, Pseudomonas aeruginosa; conditions: gram-negative; disc 10 μL of 10 mg/mL in DMSO, 37° C., 48 h
Description: as §1

Bacillus cereus = assay: Agar plate disc-diffusion, Bacillus cereus; conditions: gram positive; disc 10 μL of 10 mg/mL in DMSO, 37° C., 48 h
Description: as §1

Staphylococcus aureus = assay: Agar plate disc-diffusion, Staphylococcus aureus; conditions: gram positive; disc 10 μL of 10 mg/mL in DMSO, 37° C., 48 h
Description: as §1

[2] = tested on: human osteosarcoma cells (MG-63); assay: Cytotoxicity by SRB assay, MG-63; conditions: MG-63 cells, 0.01 μM to 100 μM for 72 h
Description: (§2) The human prostate cancer cells (PC3) and human osteosarcoma cells (MG-63) were obtained from Nawah Scientific Inc. (Mokatam, Cairo, Egypt) and cultured in DMEM (Dulbecco's modified eagle's medium), Gibco, USA, supplemented with fetal bovine serum (FBS) at a concentration of 10% and 100 U/mL of penicillin and streptomycin (PS). The Cells were incubated at 37° C. in a humidified environment that contained 5% CO2. Cells were seeded in 96-well plates as aliquots of 100 μL cell suspension and incubated in a complete media for 24 h. afterward, cells were treated with [3-(4-methoxyphenyl)-1,2,4-oxadiazol-5-yl]methanol at diverse concentrations ranging from 0.01 μM to 100 μM for 72 h. Then, cells were fixed at 4° C. for one hour with 150 μL of 10% trichloroacetic acid (TCA). After washing the cells five times with distilled water, 70 μL of sulforhodamine (SRB) solution (0.4% w/v) was added and incubated for 10 min at room temperature in a dark place. […] Then, 150 μL of Tris pH 10.5 (10 mM) was added, and the absorbance was measured at 540 nm using a BMG LABTECH®-FLUOstar Omega microplate reader (Ortenberg, Germany). Half maximal inhibitory concentrations (IC50) values were calculated for each experiment using GraphPad Prism 6 software. […] The inhibition was calculated using the following equation: Inhibition %=100−Average Viability

Aspergillus flavus = assay: Agar plate disc-diffusion, Aspergillus flavus; conditions: fungus; disc 10 μL of 10 mg/mL in DMSO, 72 h
Description: as §1

Escherichia coli = assay: Agar plate disc-diffusion, Escherichia coli; conditions: gram-negative; disc 10 μL of 10 mg/mL in DMSO, 37° C., 48 h
Description: as §1

[3] = tested on: human prostate cancer cells (PC3); assay: Cytotoxicity by SRB assay, PC3; conditions: 0.01 μM to 100 μM for 72 h
Description: as §2

COc1ccc(-c2noc(CO)n2)cc1 [[3-(4-methoxyphenyl)-1,2,4-oxadiazol-5-yl]methanol]
high antimicrobial activities: antifungal activity [1] | antibacterial activity (Pseudomonas aeruginosa) | antibacterial activity (Bacillus cereus) | antibacterial activity (Staphylococcus aureus) | antifungal activity (Aspergillus flavus) | antibacterial activity (Escherichia coli)
excellent antiproliferative activities: antiproliferative activity [2] | antiproliferative activity [3]
